The record followed here is patent US20230174486A1, “NON-LYSOSOMAL GLUCOSYLCERAMIDASE INHIBITORS AND USES THEREOF” (ALECTOS THERAPEUTICS lNC., priority 2020, published 2023).

Molecules are shown by their SMILES.

In one test the target is T1, human GBA2 (Homo sapiens, UniProt Q9HCG7).
T1 construct: cellular homogenate
T1 sequence (Q9HCG7 1-927): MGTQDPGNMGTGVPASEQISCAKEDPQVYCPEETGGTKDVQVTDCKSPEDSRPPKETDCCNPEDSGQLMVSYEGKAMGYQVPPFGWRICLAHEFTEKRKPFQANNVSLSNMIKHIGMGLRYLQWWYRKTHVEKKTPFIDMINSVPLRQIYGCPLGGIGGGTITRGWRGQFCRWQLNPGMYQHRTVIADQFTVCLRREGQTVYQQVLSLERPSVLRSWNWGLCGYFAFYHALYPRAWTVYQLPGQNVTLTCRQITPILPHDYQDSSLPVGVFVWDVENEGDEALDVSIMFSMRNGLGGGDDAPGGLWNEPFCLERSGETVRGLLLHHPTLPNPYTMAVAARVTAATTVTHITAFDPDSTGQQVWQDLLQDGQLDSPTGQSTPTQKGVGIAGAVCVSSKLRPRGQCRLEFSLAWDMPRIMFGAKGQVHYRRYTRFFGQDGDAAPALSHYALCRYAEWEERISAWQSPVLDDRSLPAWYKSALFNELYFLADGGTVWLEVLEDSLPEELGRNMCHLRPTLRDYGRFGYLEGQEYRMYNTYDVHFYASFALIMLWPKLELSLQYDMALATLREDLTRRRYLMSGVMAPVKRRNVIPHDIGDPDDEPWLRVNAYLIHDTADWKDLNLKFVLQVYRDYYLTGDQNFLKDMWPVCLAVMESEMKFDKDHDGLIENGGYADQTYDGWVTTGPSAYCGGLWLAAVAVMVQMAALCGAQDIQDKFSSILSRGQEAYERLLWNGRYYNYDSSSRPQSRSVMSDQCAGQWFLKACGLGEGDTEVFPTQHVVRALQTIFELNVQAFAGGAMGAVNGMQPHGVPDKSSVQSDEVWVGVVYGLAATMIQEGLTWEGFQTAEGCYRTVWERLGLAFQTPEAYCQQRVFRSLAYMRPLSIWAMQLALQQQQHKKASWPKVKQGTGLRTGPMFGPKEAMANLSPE
In words: Inhibition of GBA2 in cell lysate (4-methylumbelliferone-β-D glucopyranoside substrate). The test is classed as biochemical. To be noted: homogenate of HEK293T cells stably overexpressing human GBA2, pH 5.5, 37° C., GCase inhibitor present. Here is the method: Stable GBA2-expressing HEK293T cells were generated as follows. The PCR-amplified human GBA2 (GBA2 nucleotide accession number BC011363) using the following primers: Sense 5’---CGCAAATGGGCGGTAGGCGTG---3’ and antisense 5’---TAGTCAGCCATGGGGCGGAGA ---3’) was cloned into pLenti-GIII-CMV by ABM Inc. The correctness of the construct was verified by sequencing. Lentivirus particles containing GBA2 in the pLenti-GIII-CMV plasmid were prepared using a third Generation Virus Packaging Mix (ABM cat# LV053-G074) in HEK293T cells and supplied as a virus particle suspension. The virus suspension was used for infection of HEK293T cells. Cell populations stably expressing human GBA2 were selected using puromycin for several weeks as determined by activity assays and western blot.
Various concentrations of test compounds were prepared in DMSO and then diluted into buffer consisting of 100 mM citric acid, 200 mM disodium phosphate with 1% v/v C10E6, pH 5.5. Cellular homogenates (0.25 mg/mL) of the stable HEK293T-overexpressing GBA2 cell line were preincubated for 10 min on ice with an inhibitor of GCase (20 µM (6R,7R,8S)-8-ethyl-4-azaspiro[2.5]octane-6,7-diol). The reaction solution consisted of 20 µL of 750 µM 4-methylumbelliferone-β-D glucopyranoside in 5% DMSO in the same buffer, 20 µL of GBA2-cellular homogenate pre-treated with (6R,7R,8S)-8-ethyl-4-azaspiro[2.5]octane-6,7-diol and 20 µL of various concentrations of test compound in 10% DMSO in the same buffer. The final concentrations in the reaction were 0.083 mg/mL GBA2-cellular homogenate, 250 µM 4-methylumbelliferone-β-D glucopyranoside, and various concentrations of inhibitor. The inhibitor and GBA2-cellular homogenate were preincubated together for 5 min at 37° C. The reaction was initiated by addition of substrate and allowed to proceed for 20 min at 37° C. to assess GBA2 activity. Reactions were stopped by the addition of an equal volume (60 µL) of 0.5 M NaOH, 0.3 M glycine, pH 10.5. Fluorescence was measured on a Biotek Synergy H4 plate reader at wavelengths of 365 nm for excitation and 450 nm for emission. Incubations without added enzyme or added inhibitors were used to define no enzyme activity and maximal enzyme activity, respectively. IC50 values were determined by fitting the data to a log[inhibitor concentration] versus response curve using GraphPad Prism. IC50 values were calculated as the concentration of inhibitor required to inhibit GBA2 activity by 50%.

The target of test [1] is T2, human non-lysosomal glucosylceramidase (GBA2) (Homo sapiens, UniProt Q9HCG7).
T2 sequence (Q9HCG7 1-927): T1 sequence (Q9HCG7 1-927)
In words: Binding specificity for GBA2 over other molecules (ratio of Ki or IC50 values). The format is biochemical. To be noted: qualitative statement, no values or other enzyme given. The text has this: In some embodiments, one or more of the compounds according to the invention may specifically bind a GBA2. In alternative embodiments, one or more of the compounds according to the invention may specifically bind the active site of a GBA2. […] In alternative embodiments, one or more of the compounds according to the invention may specifically bind the human non-lysosomal glucosylceramidase (GBA2) over the human lysosomal glucosylceramidase (GCase) and/or the human cytosolic glucosylceramidase (GBA3). In alternative embodiments, one or more of the compounds according to the invention may specifically bind the human non-lysosomal glucosylceramidase (GBA2) over the human glucosylceramide synthase (GCS). In alternative embodiments, one or more of the compounds according to the invention may specifically bind the human non-lysosomal glucosylceramidase (GBA2) over an intestinal alpha-glucosidase, where the intestinal alpha-glucosidase may be a sucrase-isomaltase or a maltase-glucoamylase.

As to `C[C@@H](CN1C[C@H](O)[C@@H](O)[C@H](O)[C@H]1CO)c1ccccc1` (single isomer, unassigned) [Example 7], the “GBA2 IC50” value on human GBA2 is “∗∗∗”. On to `C[C@H](CN1C[C@H](O)[C@@H](O)[C@H](O)[C@H]1CO)c1ccccc1` (single isomer, unassigned) [Example 8], for which, at human GBA2, the “GBA2 IC50” value is given as “∗∗∗”. The “binding specificity, Ki(other molecule)/Ki(GBA2) or IC50(other molecule)/IC50(GBA2)” value (shortened to “binding specificity”) in test [1] is “enhanced binding specificity”. Regarding `OC[C@@H]1[C@@H](O)[C@H](O)[C@@H](O)CN1CCc1ccccc1F` [Example 1, (2R,3R,4R,5S)-1-(2-fluorophenethyl)-2-(hydroxymethyl)piperidine-3,4,5-triol], the “GBA2 IC50” value at human GBA2 is given as “∗∗∗”. Take `OC[C@@H]1[C@@H](O)[C@H](O)[C@@H](O)CN1CCc1cccc(F)c1` [Example 2, (2R,3R,4R,5S)-1-(3-fluorophenethyl)-2-(hydroxymethyl)piperidine-3,4,5-triol]: the “GBA2 IC50” value at human GBA2 is “∗∗∗”.

Turning to `OC[C@@H]1[C@@H](O)[C@H](O)[C@@H](O)CN1CCc1ccc(F)cc1` [Example 3, (2R,3R,4R,5S)-1-(4-fluorophenethyl)-2-(hydroxymethyl)piperidine-3,4,5-triol], the “GBA2 IC50” value at human GBA2 is on record as “∗∗∗”. Turning to `OC[C@@H]1[C@@H](O)[C@H](O)[C@@H](O)CN1CCc1c(F)cccc1F` [Example 4, (2R,3R,4R,5S)-1-(2,6-difluorophenethyl)-2-(hydroxymethyl)piperidine-3,4,5-triol], the “GBA2 IC50” value on human GBA2 is recorded as “∗∗∗”. For the same compound, the “binding specificity” value in test [1] is “enhanced binding specificity”. For `OC[C@@H]1[C@@H](O)[C@H](O)[C@@H](O)CN1CCc1cccc(C(F)(F)F)c1` [Example 5, (2R,3R,4R,5S)-2-(hydroxymethyl)-1-(3-(trifluoromethyl)phenethyl)piperidine-3,4,5-triol], the “GBA2 IC50” value on human GBA2 is “∗∗∗”. On to `OC[C@@H]1[C@@H](O)[C@H](O)[C@@H](O)CN1CCc1ccc(C(F)(F)F)cc1` [Example 6, (2R,3R,4R,5S)-2-(hydroxymethyl)-1-(4-(trifluoromethyl)phenethyl)piperidine-3,4,5-triol], for which the “GBA2 IC50” value at human GBA2 is “∗∗∗”.

Take `OC[C@@H]1[C@@H](O)[C@H](O)[C@@H](O)CN1CCc1ccccn1` [Example 9, (2R,3R,4R,5S)-2-(hydroxymethyl)-1-(2-(pyridin-2-yl)ethyl)piperidine-3,4,5-triol]: the “GBA2 IC50” value on human GBA2 is reported as “∗∗”. For the compound `OC[C@@H]1[C@@H](O)[C@H](O)[C@@H](O)CN1CCc1cccs1` [Example 10, (2R,3R,4R,5S)-2-(hydroxymethyl)-1-(2-(thiophen-2-yl)ethyl)piperidine-3,4,5-triol], the “GBA2 IC50” value at human GBA2 is given as “∗∗∗”. For the compound `OC[C@@H]1[C@@H](O)[C@H](O)[C@@H](O)CN1CCc1ccsc1` [Example 11, (2R,3R,4R,5S)-2-(hydroxymethyl)-1-(2-(thiophen-3-yl)ethyl)piperidine-3,4,5-triol], on human GBA2, the “GBA2 IC50” value was “∗∗∗”. With `OC[C@H]1[C@@H](O)[C@H](O)[C@@H](O)CN1CC1CCCCC1` [Example 12, (2S,3R,4R,5S)-1-(cyclohexylmethyl)-2-(hydroxymethyl)piperidine-3,4,5-triol], the “GBA2 IC50” value at human GBA2 is “∗∗∗”. For the same compound, the “binding specificity” value in test [1] is given as “enhanced binding specificity”. With `OC[C@H]1[C@@H](O)[C@H](O)[C@@H](O)CN1C[C@H]1CC[C@H](C(F)(F)F)CC1` [Example 13, (2S,3R,4R,5S)-2-(hydroxymethyl)-1-(((1r,4R)-4-(trifluoromethyl)cyclohexyl)methyl)piperidine-3,4,5-triol], the “GBA2 IC50” value at human GBA2 is “∗∗∗”. Besides, in test [1], the “binding specificity” value is “enhanced binding specificity”. For the compound `CC(C)(F)[C@H]1CC[C@@H](CN2C[C@H](O)[C@@H](O)[C@H](O)[C@@H]2CO)CC1` [Example 14, (2S,3R,4R,5S)-1-(((1s,4S)-4-(2-fluoropropan-2-yl)cyclohexyl)methyl)-2-(hydroxymethyl)piperidine-3,4,5-triol], on human GBA2, the “GBA2 IC50” value is “∗∗∗”. In addition, the “binding specificity” value in test [1] was “enhanced binding specificity”.

For the compound `OC[C@H]1[C@@H](O)[C@H](O)[C@@H](O)CN1CC1Cc2ccccc2C1` [Example 15, (2S,3R,4R,5S)-1-((2,3-dihydro-1H-inden-2-yl)methyl)-2-(hydroxymethyl)piperidine-3,4,5-triol], on human GBA2, the “GBA2 IC50” value was “∗∗∗”. Also, in test [1], the “binding specificity” value is recorded as “enhanced binding specificity”.

As to `OC[C@H]1[C@@H](O)[C@H](O)[C@@H](O)CN1CCC1CCCCC1` [Example 16, (2S,3R,4R,5S)-1-(2-cyclohexylethyl)-2-(hydroxymethyl)piperidine-3,4,5-triol], the “GBA2 IC50” value on human GBA2 was “∗∗∗”. In addition, in test [1], the “binding specificity” value is reported as “enhanced binding specificity”.

For `OC[C@H]1[C@@H](O)[C@H](O)[C@@H](O)CN1CCCC1CCCCC1` [Example 17, (2S,3R,4R,5S)-1-(3-cyclohexylpropyl)-2-(hydroxymethyl)piperidine-3,4,5-triol], the “GBA2 IC50” value at human GBA2 was “∗∗∗”. Take `OC[C@H]1[C@@H](O)[C@H](O)[C@@H](O)CN1CCc1ccccc1F` [Example 18, (2S,3R,4R,5S)-1-(2-fluorophenethyl)-2-(hydroxymethyl)piperidine-3,4,5-triol]: the “GBA2 IC50” value at human GBA2 was “∗∗∗”. On to `OC[C@H]1[C@@H](O)[C@H](O)[C@@H](O)CN1CCc1cccc(Cl)c1F` [Example 19, (2S,3R,4R,5S)-1-(3-chloro-2-fluorophenethyl)-2-(hydroxymethyl)piperidine-3,4,5-triol], for which the “GBA2 IC50” value at human GBA2 was “∗∗∗”. As for `OC[C@H]1[C@@H](O)[C@H](O)[C@@H](O)CN1C[C@H]1CCN(c2nc(C(F)(F)F)cs2)C1` [Example 26, (2S,3R,4R,5S)-2-(hydroxymethyl)-1—(((R)—1-(4-(trifluoromethyl)thiazol-2-yl)pyrrolidin-3-yl)methyl)piperidine-3,4,5-triol], the “GBA2 IC50” value at human GBA2 is “∗∗∗”. Regarding `OC[C@H]1[C@@H](O)[C@H](O)[C@@H](O)CN1C[C@H]1CCCN(c2nc(C(F)(F)F)cs2)C1` [Example 30, (2S,3R,4R,5S)-2-(hydroxymethyl)-1—(((R)—1-(4-(trifluoromethyl)thiazol-2-yl)piperidin-3-yl)methyl)piperidine-3,4,5-triol], the “GBA2 IC50” value at human GBA2 was “∗∗∗”.
